Data: PubChem BioAssay (NCI)
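48-hour exposure; five concentrations; linearly interpolated endpoints. At the GI50, growth is halved. The concentration for full growth arrest is given as TGI.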

Columns and labels:
Experiment in all cases: growth of human tumour cells (NCI), 48 h
786-0 renal = test system: 786-0 renal
A498 renal = test system: A498 renal
A549 NSCLC = test system: A549 NSCLC
ACHN renal = test system: ACHN renal
BT-549 breast = test system: BT-549 breast
CAKI-1 renal = test system: CAKI-1 renal
CCRF-CEM leukemia = test system: CCRF-CEM leukemia
COLO 205 colon = test system: COLO 205 colon
DU-145 prostate = test system: DU-145 prostate
EKVX NSCLC = test system: EKVX NSCLC
HCC-2998 colon = test system: HCC-2998 colon
HCT-116 colon = test system: HCT-116 colon
HCT-15 colon = test system: HCT-15 colon
HL-60(TB) leukemia = test system: HL-60(TB) leukemia
HOP-62 NSCLC = test system: HOP-62 NSCLC
HOP-92 NSCLC = test system: HOP-92 NSCLC
HS 578T breast = test system: HS 578T breast
HT29 colon = test system: HT29 colon
IGROV1 ovarian = test system: IGROV1 ovarian
K-562 leukemia = test system: K-562 leukemia
KM12 colon = test system: KM12 colon
LOX IMVI melanoma = test system: LOX IMVI melanoma
M14 melanoma = test system: M14 melanoma
MALME-3M melanoma = test system: MALME-3M melanoma
MCF7 breast = test system: MCF7 breast
MDA-MB-435 = test system: MDA-MB-435
MDA-MB-468 breast = test system: MDA-MB-468 breast
MOLT-4 leukemia = test system: MOLT-4 leukemia
NCI-H226 lung = test system: NCI-H226 lung
NCI-H23 lung = test system: NCI-H23 lung
NCI-H460 lung = test system: NCI-H460 lung
NCI-H522 lung = test system: NCI-H522 lung
NCI/ADR-RES ovarian = test system: NCI/ADR-RES ovarian
OVCAR-3 ovarian = test system: OVCAR-3 ovarian
OVCAR-4 ovarian = test system: OVCAR-4 ovarian
OVCAR-5 ovarian = test system: OVCAR-5 ovarian
OVCAR-8 ovarian = test system: OVCAR-8 ovarian
PC-3 prostate = test system: PC-3 prostate
RPMI-8226 leukemia = test system: RPMI-8226 leukemia
RXF 393 renal = test system: RXF 393 renal
SF-268 CNS = test system: SF-268 CNS
SF-295 CNS = test system: SF-295 CNS
SF-539 CNS = test system: SF-539 CNS
SK-MEL-28 melanoma = test system: SK-MEL-28 melanoma
SK-MEL-5 melanoma = test system: SK-MEL-5 melanoma
SK-OV-3 ovarian = test system: SK-OV-3 ovarian
SN12C renal = test system: SN12C renal
SNB-19 CNS = test system: SNB-19 CNS
SR leukemia = test system: SR leukemia
SW-620 colon = test system: SW-620 colon
T-47D breast = test system: T-47D breast
TK-10 renal = test system: TK-10 renal
U251 CNS = test system: U251 CNS
UACC-257 melanoma = test system: UACC-257 melanoma
UACC-62 melanoma = test system: UACC-62 melanoma

`O=C1Nc2ccc(F)cc2/C1=C/c1cccc(OCc2ccccn2)c1` showed a GI50 (786-0 renal) of 15 µM, a TGI (786-0 renal) of 29.7 µM and a GI50 (A498 renal) of 54.3 µM. For the same compound, the TGI (A498 renal) was over 100 µM, the GI50 (A549 NSCLC) was 18.9 µM and the TGI (A549 NSCLC) was 59.9 µM. For the same compound, the GI50 (ACHN renal) was 16.4 µM, the TGI (ACHN renal) was 33.5 µM and the GI50 (BT-549 breast) was 15 µM. It also gave a TGI (BT-549 breast) of 30.1 µM, a GI50 (CAKI-1 renal) of 19.6 µM and a TGI (CAKI-1 renal) of 55.5 µM. For the same compound, the GI50 (CCRF-CEM leukemia) was 25.9 µM, the TGI (CCRF-CEM leukemia) was 71.8 µM and the GI50 (COLO 205 colon) was 16.3 µM. The TGI (COLO 205 colon) was 31 µM, the GI50 (DU-145 prostate) was 18.2 µM and the TGI (DU-145 prostate) was 33.5 µM. For the same compound, the GI50 (EKVX NSCLC) was 13 µM, the TGI (EKVX NSCLC) was 26.9 µM and the GI50 (HCC-2998 colon) was 16.3 µM. For the same compound, the TGI (HCC-2998 colon) was 30.3 µM, the GI50 (HCT-116 colon) was 13.7 µM and the TGI (HCT-116 colon) was 28.5 µM. The GI50 (HCT-15 colon) was 16.5 µM, the TGI (HCT-15 colon) was 34.4 µM and the GI50 (HL-60(TB) leukemia) was 16.4 µM. It also gave a TGI (HL-60(TB) leukemia) of 39.3 µM, a GI50 (HOP-62 NSCLC) of 14.4 µM and a TGI (HOP-62 NSCLC) of 30.8 µM. It also gave a GI50 (HOP-92 NSCLC) of 11.3 µM, a TGI (HOP-92 NSCLC) of 36.3 µM and a GI50 (HS 578T breast) of 17.6 µM. It also gave a TGI (HS 578T breast) of 63.3 µM, a GI50 (HT29 colon) of 17.5 µM and a TGI (HT29 colon) of 34.7 µM. It also gave a GI50 (IGROV1 ovarian) of 17 µM, a TGI (IGROV1 ovarian) of 36.2 µM and a GI50 (K-562 leukemia) of 17.5 µM. The TGI (K-562 leukemia) was 57.3 µM, the GI50 (KM12 colon) was 19 µM and the TGI (KM12 colon) was 37.3 µM. For the same compound, the GI50 (LOX IMVI melanoma) was 14.9 µM, the TGI (LOX IMVI melanoma) was 29 µM and the GI50 (M14 melanoma) was 15.7 µM. The TGI (M14 melanoma) was 31.5 µM, the GI50 (MALME-3M melanoma) was 17.5 µM and the TGI (MALME-3M melanoma) was 40.1 µM. It also gave a GI50 (MCF7 breast) of 12.1 µM, a TGI (MCF7 breast) of 26.4 µM and a GI50 (MDA-MB-435) of 18.5 µM. The TGI (MDA-MB-435) was 36.6 µM, the GI50 (MDA-MB-468 breast) was 14.2 µM and the TGI (MDA-MB-468 breast) was 29.3 µM. The GI50 (MOLT-4 leukemia) was 17.5 µM, the TGI (MOLT-4 leukemia) was 40 µM and the GI50 (NCI-H226 lung) was 15 µM. For the same compound, the TGI (NCI-H226 lung) was 29.9 µM, the GI50 (NCI-H23 lung) was 15 µM and the TGI (NCI-H23 lung) was 28.8 µM. It also gave a GI50 (NCI-H460 lung) of 19.8 µM, a TGI (NCI-H460 lung) of 44.4 µM and a GI50 (NCI-H522 lung) of 15.9 µM. For the same compound, the TGI (NCI-H522 lung) was 33 µM, the GI50 (NCI/ADR-RES ovarian) was 16.8 µM and the TGI (NCI/ADR-RES ovarian) was 39.3 µM. For the same compound, the GI50 (OVCAR-3 ovarian) was 15.2 µM, the TGI (OVCAR-3 ovarian) was 32.4 µM and the GI50 (OVCAR-4 ovarian) was 22 µM. For the same compound, the TGI (OVCAR-4 ovarian) was 63.3 µM, the GI50 (OVCAR-5 ovarian) was 16 µM and the TGI (OVCAR-5 ovarian) was 31 µM. It also gave a GI50 (OVCAR-8 ovarian) of 16.1 µM, a TGI (OVCAR-8 ovarian) of 31.7 µM and a GI50 (PC-3 prostate) of 18.7 µM. For the same compound, the TGI (PC-3 prostate) was 48.7 µM, the GI50 (RPMI-8226 leukemia) was 17.3 µM and the TGI (RPMI-8226 leukemia) was 48 µM. The GI50 (RXF 393 renal) was 13.3 µM, the TGI (RXF 393 renal) was 26.4 µM and the GI50 (SF-268 CNS) was 17.1 µM. The TGI (SF-268 CNS) was 39.3 µM, the GI50 (SF-295 CNS) was 16 µM and the TGI (SF-295 CNS) was 30.3 µM. For the same compound, the GI50 (SF-539 CNS) was 16.3 µM, the TGI (SF-539 CNS) was 30.4 µM and the GI50 (SK-MEL-28 melanoma) was 18.4 µM. The TGI (SK-MEL-28 melanoma) was 37.1 µM, the GI50 (SK-MEL-5 melanoma) was 16.6 µM and the TGI (SK-MEL-5 melanoma) was 30.5 µM. The GI50 (SK-OV-3 ovarian) was 18.6 µM, the TGI (SK-OV-3 ovarian) was 50 µM and the GI50 (SN12C renal) was 16.8 µM. It also gave a TGI (SN12C renal) of 34.4 µM, a GI50 (SNB-19 CNS) of 17.2 µM and a TGI (SNB-19 CNS) of 33.2 µM. For the same compound, the GI50 (SR leukemia) was 16.4 µM, the TGI (SR leukemia) was 42.6 µM and the GI50 (SW-620 colon) was 17.2 µM. For the same compound, the TGI (SW-620 colon) was 36 µM, the GI50 (T-47D breast) was 15 µM and the TGI (T-47D breast) was 34 µM. It also gave a GI50 (TK-10 renal) of 18.1 µM, a TGI (TK-10 renal) of 32.5 µM and a GI50 (U251 CNS) of 15.2 µM. It also gave a TGI (U251 CNS) of 33.3 µM, a GI50 (UACC-257 melanoma) of 14.4 µM and a TGI (UACC-257 melanoma) of 30.1 µM. It also gave a GI50 (UACC-62 melanoma) of 13.6 µM and a TGI (UACC-62 melanoma) of 27.7 µM.
